Test system: 276233-004-R-J1-PDC KRAS spheroids with HUVEC/MSC, viability
Assay: Anticancer human tumor 276233-004-R-J1-PDC patient-derived colon adenocarcinoma cell line growth inhibition [KRAS2]
Conditions: for viability, T/C: stronger effect = lower value
How it was run: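 KRAS-mutant tumor cells were grown as spheroids with HUVEC endothelial cells and human MSCs as stroma. Targeted agents were tested alone and with KRAS pathway inhibitors. Doses started at or near clinical Cmax, or 10 microM, descending half-log.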

[1] = curve of first compound, second compound 0.1 µM
[2] = curve of first compound, second compound 0.316 µM
[3] = curve of first compound, second compound 1 µM
[4] = curve of first compound, second compound 3.16 µM
[5] = second compound 0.1 µM, first compound 0.000316 µM
[6] = second compound 0.1 µM, first compound 0.001 µM
[7] = second compound 0.1 µM, first compound 0.00316 µM
[8] = second compound 0.1 µM, first compound 0.01 µM
[9] = second compound 0.1 µM, first compound 0.0316 µM
[10] = second compound 0.1 µM, first compound 0.1 µM
[11] = second compound 0.316 µM, first compound 0.000316 µM
[12] = second compound 0.316 µM, first compound 0.001 µM
[13] = second compound 0.316 µM, first compound 0.00316 µM
[14] = second compound 0.316 µM, first compound 0.01 µM
[15] = second compound 0.316 µM, first compound 0.0316 µM
[16] = second compound 0.316 µM, first compound 0.1 µM
[17] = second compound 1 µM, first compound 0.000316 µM
[18] = second compound 1 µM, first compound 0.001 µM
[19] = second compound 1 µM, first compound 0.00316 µM
[20] = second compound 1 µM, first compound 0.01 µM
[21] = second compound 1 µM, first compound 0.0316 µM
[22] = second compound 1 µM, first compound 0.1 µM
[23] = second compound 3.16 µM, first compound 0.000316 µM
[24] = second compound 3.16 µM, first compound 0.001 µM
[25] = second compound 3.16 µM, first compound 0.00316 µM
[26] = second compound 3.16 µM, first compound 0.01 µM
[27] = second compound 3.16 µM, first compound 0.0316 µM
[28] = second compound 3.16 µM, first compound 0.1 µM
[29] = curve of first compound, second compound 0.0316 µM
[30] = second compound 0.0316 µM, first compound 0.0316 µM
[31] = second compound 0.0316 µM, first compound 0.1 µM
[32] = second compound 0.0316 µM, first compound 0.316 µM
[33] = second compound 0.0316 µM, first compound 1 µM
[34] = second compound 0.0316 µM, first compound 3.16 µM
[35] = second compound 0.0316 µM, first compound 10 µM
[36] = second compound 0.1 µM, first compound 0.316 µM
[37] = second compound 0.1 µM, first compound 1 µM
[38] = second compound 0.1 µM, first compound 3.16 µM
[39] = second compound 0.1 µM, first compound 10 µM
[40] = second compound 0.316 µM, first compound 0.316 µM
[41] = second compound 0.316 µM, first compound 1 µM
[42] = second compound 0.316 µM, first compound 3.16 µM
[43] = second compound 0.316 µM, first compound 10 µM
[44] = second compound 1 µM, first compound 0.316 µM
[45] = second compound 1 µM, first compound 1 µM
[46] = second compound 1 µM, first compound 3.16 µM
[47] = second compound 1 µM, first compound 10 µM
[48] = second compound 3.16 µM, first compound 0.316 µM
[49] = second compound 3.16 µM, first compound 1 µM
[50] = second compound 3.16 µM, first compound 3.16 µM
[51] = second compound 3.16 µM, first compound 10 µM
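Also: cells exposed to agents for seven days before viability read.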
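For viability, T/C in this document: 100% = DMSO vehicle control wells and lower values mean fewer viable cells.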

## CN(C)C/C=C/C(=O)Nc1cc2c(Nc3ccc(F)c(Cl)c3)ncnc2cc1O[C@H]1CCOC1 + C=CC(=O)N1CCN(c2nc(=O)n(-c3c(C)ccnc3C(C)C)c3nc(-c4c(O)cccc4F)c(F)cc23)C(C)C1
[1]
  IC50: > 100 nM
[2]
  IC50: > 100 nM
[3]
  IC50: > 100 nM
[4]
  IC50: > 100 nM
Curve of first compound, second compound 10 µM
  IC50: > 100 nM
[5]
  viability, T/C: 93.5%
[6]
  viability, T/C: 97.1%
[7]
  viability, T/C: 72%
[8]
  viability, T/C: 87.6%
[9]
  viability, T/C: 75.8%
[10]
  viability, T/C: 85.3%
[11]
  viability, T/C: 109%
[12]
  viability, T/C: 80.8%
[13]
  viability, T/C: 83%
[14]
  viability, T/C: 67.6%
[15]
  viability, T/C: 88%
[16]
  viability, T/C: 87%
[17]
  viability, T/C: 103%
[18]
  viability, T/C: 101%
[19]
  viability, T/C: 80.8%
[20]
  viability, T/C: 82.6%
[21]
  viability, T/C: 84.6%
[22]
  viability, T/C: 95.6%
[23]
  viability, T/C: 87.1%
[24]
  viability, T/C: 77.8%
[25]
  viability, T/C: 85.9%
[26]
  viability, T/C: 69.9%
[27]
  viability, T/C: 78.6%
[28]
  viability, T/C: 69.7%
Second compound 10 µM, first compound 0.000316 µM
  viability, T/C: 66%
Second compound 10 µM, first compound 0.001 µM
  viability, T/C: 65.8%
Second compound 10 µM, first compound 0.00316 µM
  viability, T/C: 57.8%
Second compound 10 µM, first compound 0.01 µM
  viability, T/C: 66.8%
Second compound 10 µM, first compound 0.0316 µM
  viability, T/C: 69.1%
Second compound 10 µM, first compound 0.1 µM
  viability, T/C: 84.9%

## COc1cc(Nc2ncc3c(n2)-c2ccc(Cl)cc2C(c2c(F)cccc2OC)=NC3)ccc1C(=O)O + C=CC(=O)N1CCN(c2nc(OCC3CCCN3C)nc3c2CCN(c2cccc4cccc(C)c24)C3)CC1CC#N
[29]
  IC50: > 10000 nM
[1]
  IC50: > 10000 nM
[2]
  IC50: > 10000 nM
[3]
  IC50: > 10000 nM
[4]
  IC50: 2120 nM
[30]
  viability, T/C: 98.9%
[31]
  viability, T/C: 85.5%
[32]
  viability, T/C: 89.2%
[33]
  viability, T/C: 86.2%
[34]
  viability, T/C: 77.9%
[35]
  viability, T/C: 77%
[9]
  viability, T/C: 85.9%
[10]
  viability, T/C: 91.1%
[36]
  viability, T/C: 82.2%
[37]
  viability, T/C: 73.6%
[38]
  viability, T/C: 83.3%
[39]
  viability, T/C: 81%
[15]
  viability, T/C: 94.5%
[16]
  viability, T/C: 79%
[40]
  viability, T/C: 70.9%
[41]
  viability, T/C: 67.8%
[42]
  viability, T/C: 83.1%
[43]
  viability, T/C: 63.9%
[21]
  viability, T/C: 79.8%
[22]
  viability, T/C: 81.3%
[44]
  viability, T/C: 94.9%
[45]
  viability, T/C: 96.9%
[46]
  viability, T/C: 67.2%
[47]
  viability, T/C: 70.5%
[27]
  viability, T/C: 45.9%
[28]
  viability, T/C: 64%
[48]
  viability, T/C: 55.7%
[49]
  viability, T/C: 54.1%
[50]
  viability, T/C: 47.4%
[51]
  viability, T/C: 26.9%

## COc1cc2nccc(Oc3ccc(NC(=O)C4(C(=O)Nc5ccc(F)cc5)CC4)cc3)c2cc1OC + C=CC(=O)N1CCN(c2nc(OCC3CCCN3C)nc3c2CCN(c2cccc4cccc(C)c24)C3)CC1CC#N
[29]
  IC50: > 10000 nM
[1]
  IC50: > 10000 nM
[2]
  IC50: > 10000 nM
[3]
  IC50: > 10000 nM
[4]
  IC50: 1680 nM
[30]
  viability, T/C: 80%
[31]
  viability, T/C: 89.7%
[32]
  viability, T/C: 91%
[33]
  viability, T/C: 78.9%
[34]
  viability, T/C: 87.6%
[35]
  viability, T/C: 90.6%
[9]
  viability, T/C: 93.5%
[10]
  viability, T/C: 116%
[36]
  viability, T/C: 82.5%
[37]
  viability, T/C: 94.2%
[38]
  viability, T/C: 74.8%
[39]
  viability, T/C: 70.6%
[15]
  viability, T/C: 76.2%
[16]
  viability, T/C: 79.5%
[40]
  viability, T/C: 86%
[41]
  viability, T/C: 84.6%
[42]
  viability, T/C: 84.7%
[43]
  viability, T/C: 91.2%
[21]
  viability, T/C: 71.5%
[22]
  viability, T/C: 74.5%
[44]
  viability, T/C: 67.1%
[45]
  viability, T/C: 72%
[46]
  viability, T/C: 80.1%
[47]
  viability, T/C: 75.7%
[27]
  viability, T/C: 52.1%
[28]
  viability, T/C: 63.4%
[48]
  viability, T/C: 65%
[49]
  viability, T/C: 76.7%
[50]
  viability, T/C: 32.6%
[51]
  viability, T/C: 3.91%

## CC(=O)OC12COC1CC(O)C1(C)C(=O)C(O)C3=C(C)C(OC(=O)C(O)C(NC(=O)OC(C)(C)C)c4ccccc4)CC(O)(C(OC(=O)c4ccccc4)C21)C3(C)C (stereo not given)
Compound 0.01 µM
  viability, T/C: 90.3% [middle of 5 runs]
Compound 0.316 µM
  viability, T/C: 88.6% [middle of 5 runs]
Compound 1 µM
  viability, T/C: 94.5% [middle of 5 runs]
Compound 3.16 µM
  viability, T/C: 92.1% [middle of 5 runs]
Curve of compound
  IC50: > 3160 nM

## CC(C)n1nc(-c2ccc3oc(N)nc3c2)c2c(N)ncnc21 + C=CC(=O)N1CCN(c2nc(OCC3CCCN3C)nc3c2CCN(c2cccc4cccc(C)c24)C3)CC1CC#N
[29]
  IC50: > 100 nM
[1]
  IC50: > 100 nM
[2]
  IC50: > 100 nM
[3]
  IC50: > 100 nM
[4]
  IC50: 45.8 nM
Second compound 0.0316 µM, first compound 0.000316 µM
  viability, T/C: 88.4%
Second compound 0.0316 µM, first compound 0.001 µM
  viability, T/C: 143%
Second compound 0.0316 µM, first compound 0.00316 µM
  viability, T/C: 83%
Second compound 0.0316 µM, first compound 0.01 µM
  viability, T/C: 85.3%
[30]
  viability, T/C: 63.2%
[31]
  viability, T/C: 57.4%
[5]
  viability, T/C: 95.8%
[6]
  viability, T/C: 85.6%
[7]
  viability, T/C: 80.9%
[8]
  viability, T/C: 62.8%
[9]
  viability, T/C: 63.2%
[10]
  viability, T/C: 55.6%
[11]
  viability, T/C: 85.9%
[12]
  viability, T/C: 90.2%
[13]
  viability, T/C: 87.6%
[14]
  viability, T/C: 62.9%
[15]
  viability, T/C: 56.4%
[16]
  viability, T/C: 52.8%
[17]
  viability, T/C: 82.8%
[18]
  viability, T/C: 110%
[19]
  viability, T/C: 81.2%
[20]
  viability, T/C: 70.9%
[21]
  viability, T/C: 65.5%
[22]
  viability, T/C: 70.1%
[23]
  viability, T/C: 72.6%
[24]
  viability, T/C: 55.3%
[25]
  viability, T/C: 69.8%
[26]
  viability, T/C: 75.6%
[27]
  viability, T/C: 65.8%
[28]
  viability, T/C: 16.1%

From PubChem BioAssay AID1963873 (Molecular Pharmacology Branch, DTP, NCI, 2024)
